In ChEMBL document CHEMBL5113403, “Design, synthesis, and biological evaluation of novel pyrazolo [3,4-d]pyrimidine derivatives as potent PLK4 inhibitors for the treatment of TRIM37-amplified breast cancer” (Eur J Med Chem, 2022):

Key:
BT-474 = test: Antiproliferative activity against human BT-474 cells assessed as cell growth inhibition incubated for 5 days by MTT assay; type: functional, cell-based; conditions: BT-474, 120 h
[1] = Plasma stability in human assessed as compound remaining at 100 uM measured after 60 mins by LC-MS/MS analysis relative to control; type: ADME, cell-free; conditions: read-out: Stability
[2] = Plasma stability in human assessed as compound remaining at 100 uM measured after 120 mins by LC-MS/MS analysis relative to control; type: ADME, cell-free; conditions: read-out: Stability
[3] = Plasma stability in human assessed as half-life at 100 uM measured upto 120 mins by LC-MS/MS analysis relative to control; type: ADME, cell-free
CYP2C9 = CYP2C9 (Homo sapiens, UniProt P11712); test: Inhibition of CYP2C9 in human liver microsomes at 10 uM preincubated for 10 mins followed by addition of NADPH-regenerating system and measured after 15 mins by LC-MS/MS analysis relative to control; type: ADME, Microsome; conditions: time 25 min
CYP2D6 = CYP2D6 (Homo sapiens, UniProt P10635); test: Inhibition of CYP2D6 in human liver microsomes at 10 uM preincubated for 10 mins followed by addition of NADPH-regenerating system and measured after 15 mins by LC-MS/MS analysis relative to control; type: ADME, Microsome; conditions: time 25 min
CYP3A4 = CYP3A4 (Homo sapiens, UniProt P08684); test: Inhibition of CYP3A4 in human liver microsomes at 10 uM preincubated for 10 mins followed by addition of NADPH-regenerating system and measured after 15 mins by LC-MS/MS analysis relative to control; type: ADME, Microsome; conditions: time 25 min
[4] = Half-life in Sprague-Dawley rat at 10 mg/kg, po by LC-MS/MS analysis; type: ADME, organism-based; conditions: in vivo
[5] = AUCinfinity in Sprague-Dawley rat at 10 mg/kg, po by LC-MS/MS analysis; type: ADME, organism-based; parameters: time infinity, dose 10 mg/kg, route po; conditions: in vivo
[6] = Oral bioavailability in Sprague-Dawley rat at 10 mg/kg by LC-MS/MS analysis; type: ADME, organism-based; conditions: in vivo
[7] = AUClast in Sprague-Dawley rat at 3 mg/kg, iv by LC-MS/MS analysis; type: ADME, organism-based; parameters: time 0 - last, dose 3 mg/kg, route iv; conditions: in vivo
[8] = AUCinfinity in Sprague-Dawley rat at 3 mg/kg, iv by LC-MS/MS analysis; type: ADME, organism-based; parameters: time infinity, dose 3 mg/kg, route iv; conditions: in vivo
[9] = MRT in Sprague-Dawley rat at 3 mg/kg, iv by LC-MS/MS analysis; type: ADME, organism-based; conditions: in vivo
MCF7 [10] = test: Induction of apoptosis in human MCF7 cells assessed as early apoptotic cells at 2.5 uM incubated for 48 hrs by Annexin-V-FITC/PI staining based flow cytometric analysis (reference value: 2.83 %); type: functional
MCF7 [11] = test: Induction of apoptosis in human MCF7 cells assessed as late apoptotic cells at 2.5 uM incubated for 48 hrs by Annexin-V-FITC/PI staining based flow cytometric analysis (reference value: 0.019 %); type: functional
MCF7 [12] = test: Induction of apoptosis in human MCF7 cells assessed as late apoptotic cells at 1 uM incubated for 48 hrs by Annexin-V-FITC/PI staining based flow cytometric analysis (reference value: 0.019 %); type: functional
MCF7 [13] = test: Induction of apoptosis in human MCF7 cells assessed as necrotic cells at 1 uM incubated for 48 hrs by Annexin-V-FITC/PI staining based flow cytometric analysis (reference value: 0.18 %); type: functional
MCF7 [14] = test: Induction of apoptosis in human MCF7 cells assessed as viable cells at 0.25 uM incubated for 48 hrs by Annexin-V-FITC/PI staining based flow cytometric analysis (reference value: 97 %); type: functional
MCF7 [15] = test: Induction of apoptosis in human MCF7 cells assessed as late apoptotic cells at 0.25 uM incubated for 48 hrs by Annexin-V-FITC/PI staining based flow cytometric analysis (reference value: 0.019 %); type: functional
MCF7 [16] = test: Induction of apoptosis in human MCF7 cells assessed as viable cells at 0.10 uM incubated for 48 hrs by Annexin-V-FITC/PI staining based flow cytometric analysis (reference value: 97 %); type: functional; conditions: dose 0.1 µM
MCF7 [17] = test: Induction of apoptosis in human MCF7 cells assessed as necrotic cells at 0.10 uM incubated for 48 hrs by Annexin-V-FITC/PI staining based flow cytometric analysis (reference value: 0.18 %); type: functional; conditions: dose 0.1 µM
MCF7 [18] = test: Induction of apoptosis in human MCF7 cells assessed as total apoptotic cells at 1 uM incubated for 48 hrs by Annexin-V-FITC/PI staining based flow cytometric analysis relative to control; type: functional
MCF7 [19] = test: Induction of apoptosis in human MCF7 cells assessed as total apoptotic cells at 2.50 uM incubated for 48 hrs by Annexin-V-FITC/PI staining based flow cytometric analysis relative to control; type: functional; conditions: dose 2.5 µM
MCF7 [20] = test: Induction of cell cycle arrest in human MCF7 cells assessed as decrease in G1 phase cells at 2.5 uM measured after 48 hrs by flow cytometry analysis (reference value: 56.9 %); type: functional; parameters: scale not given: the % may be the effect or the level left
MCF7 [21] = test: Induction of cell cycle arrest in human MCF7 cells assessed as G2 phase cells at 2.5 uM measured after 48 hrs by flow cytometry analysis (reference value: 31.8 %); type: functional
MCF7 [22] = test: Induction of cell cycle arrest in human MCF7 cells assessed as S phase cells at 1 uM measured after 48 hrs by flow cytometry analysis (reference value: 9.31 %); type: functional
MCF7 [23] = test: Induction of cell cycle arrest in human MCF7 cells assessed as G2 phase cells at 1 uM measured after 48 hrs by flow cytometry analysis (reference value: 31.8 %); type: functional
MCF7 [24] = test: Induction of cell cycle arrest in human MCF7 cells assessed as less G1 phase cells at 1 uM measured after 48 hrs by flow cytometry analysis (reference value: 0.44 %); type: functional
MCF7 [25] = test: Induction of cell cycle arrest in human MCF7 cells assessed as decrease in G1 phase cells at 0.50 uM measured after 48 hrs by flow cytometry analysis (reference value: 56.9 %); type: functional; parameters: scale not given: the % may be the effect or the level left; conditions: dose 0.5 µM
MCF7 [26] = test: Induction of cell cycle arrest in human MCF7 cells assessed as greater G1 phase cells at 0.50 uM measured after 48 hrs by flow cytometry analysis (reference value: 0.78 %); type: functional; conditions: dose 0.5 µM
MCF7 [27] = test: Induction of cell cycle arrest in human MCF7 cells assessed as S phase cells at 0.25 uM measured after 48 hrs by flow cytometry analysis (reference value: 9.31 %); type: functional
MCF7 [28] = test: Induction of cell cycle arrest in human MCF7 cells assessed as less G1 phase cells at 0.25 uM measured after 48 hrs by flow cytometry analysis (reference value: 0.44 %); type: functional
MCF7 [29] = test: Induction of cell cycle arrest in human MCF7 cells assessed as decrease in G1 phase cells at 0.10 uM measured after 48 hrs by flow cytometry analysis (reference value: 56.9 %); type: functional; parameters: scale not given: the % may be the effect or the level left; conditions: dose 0.1 µM
MCF7 [30] = test: Induction of cell cycle arrest in human MCF7 cells assessed as S phase cells at 0.10 uM measured after 48 hrs by flow cytometry analysis (reference value: 9.31 %); type: functional; conditions: dose 0.1 µM
MCF7 [31] = test: Induction of cell cycle arrest in human MCF7 cells assessed as less G1 phase cells at 0.10 uM measured after 48 hrs by flow cytometry analysis (reference value: 0.44 %); type: functional; conditions: dose 0.1 µM
MCF7 [32] = test: Induction of cell cycle arrest in human MCF7 cells assessed as greater G1 phase cells at 0.10 uM measured after 48 hrs by flow cytometry analysis (reference value: 0.78 %); type: functional; conditions: dose 0.1 µM

CYP3A4, sequence (P08684 whole entry): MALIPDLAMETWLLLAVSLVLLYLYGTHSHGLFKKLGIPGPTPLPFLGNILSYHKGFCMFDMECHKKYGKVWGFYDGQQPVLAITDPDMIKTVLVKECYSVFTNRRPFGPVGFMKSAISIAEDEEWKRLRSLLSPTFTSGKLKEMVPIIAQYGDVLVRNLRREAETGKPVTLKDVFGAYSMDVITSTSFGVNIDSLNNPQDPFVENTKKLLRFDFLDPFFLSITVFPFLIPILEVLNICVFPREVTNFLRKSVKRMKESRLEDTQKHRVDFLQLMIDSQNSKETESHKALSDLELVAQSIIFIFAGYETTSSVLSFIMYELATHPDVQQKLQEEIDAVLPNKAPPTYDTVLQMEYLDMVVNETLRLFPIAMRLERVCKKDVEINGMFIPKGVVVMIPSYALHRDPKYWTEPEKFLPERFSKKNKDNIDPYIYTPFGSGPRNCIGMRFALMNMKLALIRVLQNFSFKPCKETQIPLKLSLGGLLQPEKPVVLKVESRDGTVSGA
CYP2D6, sequence (P10635 whole entry): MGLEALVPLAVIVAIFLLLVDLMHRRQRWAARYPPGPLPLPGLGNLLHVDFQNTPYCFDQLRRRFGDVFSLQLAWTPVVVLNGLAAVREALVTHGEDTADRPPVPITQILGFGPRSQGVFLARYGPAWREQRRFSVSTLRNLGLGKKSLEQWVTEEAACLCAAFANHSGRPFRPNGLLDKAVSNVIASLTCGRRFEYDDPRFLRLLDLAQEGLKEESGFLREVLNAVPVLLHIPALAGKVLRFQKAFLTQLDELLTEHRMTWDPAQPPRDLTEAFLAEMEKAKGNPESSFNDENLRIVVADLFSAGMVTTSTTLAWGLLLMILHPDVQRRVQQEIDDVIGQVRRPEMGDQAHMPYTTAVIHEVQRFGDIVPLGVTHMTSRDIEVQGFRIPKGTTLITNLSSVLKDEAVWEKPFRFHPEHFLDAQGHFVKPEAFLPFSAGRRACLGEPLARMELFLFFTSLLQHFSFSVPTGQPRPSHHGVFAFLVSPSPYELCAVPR
CYP2C9, sequence (P11712 whole entry): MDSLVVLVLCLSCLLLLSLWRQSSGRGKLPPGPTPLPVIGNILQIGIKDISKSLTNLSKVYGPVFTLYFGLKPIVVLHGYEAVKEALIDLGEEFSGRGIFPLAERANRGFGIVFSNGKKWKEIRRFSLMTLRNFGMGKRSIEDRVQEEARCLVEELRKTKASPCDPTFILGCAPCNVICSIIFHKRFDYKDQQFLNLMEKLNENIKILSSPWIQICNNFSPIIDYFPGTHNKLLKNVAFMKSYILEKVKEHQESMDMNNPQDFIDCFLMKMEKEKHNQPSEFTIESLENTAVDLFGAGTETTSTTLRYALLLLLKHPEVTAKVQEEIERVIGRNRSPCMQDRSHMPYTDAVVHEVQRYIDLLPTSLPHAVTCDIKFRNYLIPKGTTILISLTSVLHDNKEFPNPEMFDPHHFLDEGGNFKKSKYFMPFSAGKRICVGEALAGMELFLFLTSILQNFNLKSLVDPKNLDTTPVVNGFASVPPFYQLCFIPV

Cc1cc(Nc2nc(NCc3ccc(F)cc3F)nc3c2cnn3C2CCOCC2)n[nH]1
IC50 (BT-474): 2.35 µM
remaining at 1 h, 100 µM [1]: 99.2%
remaining at 2 h, 100 µM [2]: 107%
half-life at 100 µM [3]: > 4.82 h
inhibition at 0.25 h, 10 µM (CYP2C9): 25.4%
inhibition at 0.25 h, 10 µM (CYP2D6): 13.4%
inhibition at 0.25 h, 10 µM (CYP3A4): 0%
half-life [4]: 1.75 h
AUC(0-inf) [5]: 301 ng·h/mL
bioavailability [6]: 8.03%
AUC(0-t) [7]: 1070 ng·h/mL
AUC(0-inf) [8]: 1070 ng·h/mL
MRT [9]: 1.07 h
Activity (MCF7 [10]): 68.5%
Activity (MCF7 [11]): 10.8%
Activity (MCF7 [12]): 6.84%
Activity (MCF7 [13]): 0.69%
Activity (MCF7 [14]): 67.1%
Activity (MCF7 [15]): 6.18%
Activity (MCF7 [16]): 74.9%
Activity (MCF7 [17]): 1.15%
Activity (MCF7 [18]): 71.84%
Activity (MCF7 [19]): 79.3%
Activity (MCF7 [20]): 9.8%
Activity (MCF7 [21]): 67.6%
Activity (MCF7 [22]): 19.2%
Activity (MCF7 [23]): 58.3%
Activity (MCF7 [24]): 0.37%
Activity (MCF7 [25]): 36.2%
Activity (MCF7 [26]): 1.34%
Activity (MCF7 [27]): 10.67%
Activity (MCF7 [28]): 8.49%
Activity (MCF7 [29]): 53.4%
Activity (MCF7 [30]): 7.46%
Activity (MCF7 [31]): 0.37%
Activity (MCF7 [32]): 0.62%
